Laboratory results from patent US11246822B2, “Biomedical composition for skin care and/or maintenance and delaying and/or inhibiting skin aging and the use thereof” (INDUSTRIAL TECHNOLOGY RESEARCH INSTITUTE, priority 2019, dated 2022).

Key:
[1] = DPPH free radical scavenging assay; conditions: normal temperature; for DPPH free radical capture rate: vitamin C 10 μg/ml
Procedure: DPPH is a stable free radical. When it is dissolved in methanol or ethanol, it will appear purple and has a strong absorbance at 515 nm. When the sample to be tested can directly react with DPPH radicals, it will block the […] reaction of DPPH free radicals. At this time, the DPPH solution which originally appeared blue-violet will turn into clear yellow, and the absorbance at 515 nm will decrease, and that means that the sample to be tested has an antioxidant component that captures DPPH free radicals. The lighter the color become, the stronger ability to capture DPPH free radicals the antioxidant component has, which means the better the antioxidant capacity of the sample to be tested has. This assay was performed according to a method modified from the method shown by Parejo et al (2003). Aqueous solution of the sample to be tested and standards (Glutathione) with different concentrations each 30 μl were added to the 96-well plate, respectively, and water was used as a blank control. Thereafter, 120 μl of 100 mM Tris-HCl buffer (pH 7.4) was added to the plate and then 150 μl of 500 μM DPPH (Sigma Sigma) ethanol solution was immediately added and uniformly mixed at room temperature and allowed to stand in the dark for 20 minutes. After that, absorbance at 515 nm was detected by a spectrophotometer. The more DPPH free radicals were scavenged, the more the absorbance value decreased. Ability of each sample to be tested to scavenge DPPH free radicals (also means the strength of the hydrogen supply capacity of the sample to be tested) can be determined by percentage of decrease in absorbance relative to the blank control group.

[2] = Antioxidant degradation evaluation assay (iodometric titration of vitamin C); format: physicochemical; conditions: vitamin C 10 μg/ml
Procedure: This assay was performed according to a method modified from the method shown by Roberts et al. (1997). First, a liquid sample containing a specific antioxidant at a concentration to be tested was prepared, and the liquid sample containing the specific antioxidant was added into a 250 mL Erlenmeyer flask by a pipette and deionized water was added the to the Erlenmeyer flask to reach the 100 mL scale mark. At the same time, 1 mL of 0.1 M sodium iodide (NaI) and 1 mL of 0.1 M hydrochloric acid (hydrogen chloride, HCl) and 1 mL of 2% starch aqueous solution (indicator) were added to the Erlenmeyer flask. Next, a burette was rinsed the with 0.025 M potassium iodate (KIO3) at least twice, first, and then filled with 0.025 M potassium iodate in a technique of avoiding bubble formation during the filling, and the initial volume of the solution (Vi) in the burette was record after the filling. Thereafter, the liquid sample containing the specific antioxidant mentioned above was titrated with 0.025 M potassium iodate. […] Depending on the condition, the titration operation mentioned above could be repeated two or three times, as appropriate. Finally, the specific antioxidant content could be calculated from the titration volume of potassium iodate.

[3] = ABTS free radical scavenging assay; conditions: vitamin C 10 μg/ml, normal temperature
Procedure: Antioxidant capacity of a sample to be tested was evaluate by ABTS (English full name: 2,2′-azinobis-3-ethyl benzothiazoline-6-sulphonic acid) free radical scavenging test. Since ABTS and potassium persulphate (K2S2O8) will produce an oxidation reaction and form a stable blue-green water-soluble ABTS⋅^+ radical ion with a maximum absorption peak at 734 nm, ABTS⋅^+ free radical concentration can be detected through A734 nm. When the ABTS⋅^+ radical solution is added with an antioxidant (radical scavenger), the original single radicals are paired, causing the ABTS⋅^+ radical solution to fade and the A734 nm absorption value to decrease, thereby evaluating Free radical scavenging ability of the antioxidant can be evaluated.
The mixed solution was placed in a dark room at room temperature for 16 hours of reaction to form stable ABTS⋅^+ radical ions (blue-green), and then the mixed solution was diluted with deionized water to form a ABTS⋅^+ radical ion working solution with absorbance of 0.75±0.05 at 734 nm by a spectrophotometer.
Next, a sample to be tested and standards (Trolox) with different concentrations were added to the ABTS⋅^+ radical ion working solution, respectively, and a group in which only deionized water was added was used as a control group. Absorbance at 734 nm was detected by a spectrophotometer after 20 minutes of reaction. Abilities to scavenge ABTS⋅+ radicals of the standards (Trolox) with different concentrations were plotted as a scavenging standard curve. The measured absorbance of the sample to be tested and the control group are converted according to the standard curve to know the free radical scavenging ability of the sample to be tested. The formula for calculating the scavenging ability is: (1-ABSsample/ABScontrol)×100.

[4] = room temperature (about 26° C.), 24 hours

vitamin C concentration decreased ([2]; 40° C., 4 hours): 20.4%
vitamin C concentration, % of the initial concentration ([2]; 40° C., 24 hours): about 24.3%
vitamin C concentration, % of the initial concentration ([2]; 40° C., 72 hours): 3.3%
vitamin C concentration reduced / degraded [2, 4]: 62.6%
vitamin C concentration, % of the initial concentration [2, 4]: about 40%
vitamin C concentration, % of the initial concentration ([2]; room temperature (about 26° C.), 72 hours): about 0.9%
Structure (SMILES): O=C1O[C@H]([C@@H](O)CO)C(O)=C1O [vitamin C, ascorbic acid]
decrease of antioxidant capacity (DPPH) ([1]; after 24 hours): about 60%
DPPH free radical capture rate ([1]; 0 hour): 86.77%
DPPH free radical capture rate ([1]; 72 hours): 2.99%
DPPH free radical capture rate ([1]; after 24 hours): 34.67%
ABTS radical ion scavenging rate ([3]; 0 hours): 57.08%
ABTS radical ion scavenging rate ([3]; 72 hours): 2.49%
ABTS radical ion scavenging rate ([3]; after 24 hours): 22.45%
